Measurements from patent US10363229B2, “Methods and compositions for the treatment of cancer” (priority 2009, dated 2019).

Legend:
melanoma cells = test: Senescence assay (β-galactosidase staining) and arborization; assay type: cell-based, mouse
Experimental: Senescence was assessed with the Senescence Cells Histochemical Staining Kit (Sigma).
During the first 2-3 weeks of incubating melanoma cells in 2% methyl sulfone, replacement of the 2% methyl sulfone medium with medium without drug reversed the phenotypes described above. Re-adding 2% methyl sulfone to the cells re-induced the non-malignant phenotypes. This cycle of reversal occurred until the cells were incubated with 2% methyl sulfone for more than three weeks. […] As a further test, we detached senescent cells from the culture dish by trypsinization and replated the cells in medium without methyl sulfone.
Mature melanocytes assume a morphology that is similar to neuronal cells by having a small area of cytoplasm surrounding the nucleus and long extensions called arbors. The primary function of melanocytes is to produce melanin and package the melanin in vesicles called melanosomes. Melanosomes are then transported to the tips of melanocytes arbors. These tips are phagocytized by keratinocytes, cells that sit near the skin's surface, and the newly acquired melanosomes form an umbrella-like shield around the nuclei of keratinocytes to protect these cells' DNA from UV-inducing mutations.

[1] = test system: Mouse breast cancer cells (66Cl-1); test: Effects of methyl sulfone on estrogen receptor-negative breast cancer cells; assay type: cell-based
Experimental: Cloudman S-91 mouse melanoma cells (sub-clone M-3, CCL 53.1; American Type Culture Collection, Rockville, Md.) were grown in RMPI medium supplemented with 10% fetal bovine serum (Invitrogen, Inc) and 5% penicillin-streptomycin (Invitrogen, Inc). Mouse breast cancer cells (66Cl-1; American Type Culture Collection, Rockville, Md.) that are estrogen-receptor negative were grown in DMEM medium supplemented with 10% fetal bovine serum (Invitrogen, Inc) and 5% penicillin/streptomycin (Invitrogen, Inc). Human T-cell leukemic lymphocytes (CEM; American Type Culture Collection, Rockville, Md.) were grown in MEM medium supplemented with 7% fetal calf serum. Cultures were passaged twice a week. […]
Cells were plated onto sterile 12 mm coverslips in 35 mm tissue culture plates and incubated at 37° C., 5% CO2. After 24 hours, 2% methyl sulfone in medium or medium alone was added the plates and incubated at 37° C., 5% CO2 for 48 and 72 hrs. BrdU (Molecular Probes, Eugene, Oreg., USA; diluted ⅓ in RPMI medium) was added to each plate for 60 minutes at 37° C., 5% CO2. Coverslips were transferred to porcelain holders, washed with PBS, fixed in methanol/acetone (1:1), washed with PBS, and incubated in 5% BSA/PBS for 30 minutes at room temperature. To denature DNA, coverslips were placed in 0.1N HCL/1% Triton X-100 for 10 minutes at room temperature. After washing in PBS, cells were incubated with Alexa Fluor 488 anti-BrdU antibody (Molecular Probes, Eugene, Oreg.; diluted 1/20 in 5% BSA/PBS) for 60 minutes at room temperature. Cells were washed in PBS and incubated with Hoechst (diluted 1/1000 in PBS) in the dark at room temperature. After washing in PBS, cells were dipped in dH2O and drained onto Kim Wipes. SlowFade mounting medium (Molecular Probes, Eugene, Oreg.) was added to a glass slide and coverslips were placed face down onto slides and sealed with clear nail polish. Cells were viewed at the Center for Cell Analysis and Modeling, University of Connecticut Health Center, Farmington, Conn., with an Axioplan CCD Microscope equipped with a 40×1.3 NA FL objective lens, equipped with a Photometrics PXL-EEV37 high speed digital cooled CCD camera. Molecular Devices Metamorph was used for image acquisition.
Cells were plated on 8-35 mm plates that contained base agar with and without 2% methyl sulfone. To make base agar, 1% agar (DNA grade; Difco Bacto Agar; Becton Dickenson and Company, Sparks, Md.), was mixed in water at room temperature, melted in a microwave, and cooled to 40° C. before using. For drug plates, 1% agar was combined (1:1) with 4% methyl sulfone in 2×RPMI medium with sodium bicarbonate supplemented with 10% FBS and 5% penicillin/streptomycin. For control plates, 1% agar was combined (1:1) with 2×RMPI medium. Agar +/−2% methyl sulfone was added to appropriate 35 mm tissue culture plates and stored overnight at 4° C. The next day top agar and cells were placed on top of the base agar. Top agar was made with 0.66% agar in water. The agar was melted in a microwave, cooled, and stored at 40° C. 2×RPMI medium and 4% methyl sulfone was also stored at 40° C. Cells were trypsinized and counted for a final concentration of 5×10^3 cells/plate. Cell counts were adjusted to 2×10^5 cells/ml and 0.05 ml of the cell suspension was added to 15 ml centrifuge tubes (2 each). Base agar plates were removed from 4° C. and allowed to warm to room temperature for approximately 30 minutes prior to plating. For plating control cells, 2×RPMI medium and 0.66% agar were added to the tube of cell suspension, gently mixed, and placed on top of control base agar plates. For plating cells in 2% methyl sulfone, 4% methyl sulfone (in 2×RMPI medium) and 0.66% agar was added to the tube of cell suspension, mixed gently, and placed on top of the drug base agar plates. Cells were incubated in the 37° C., 5% CO2 incubator for 10-14 days. Plates were stained with 0.005% crystal violet for 1 hour. Colonies were photographed and counted with a dissecting microscope. […]

methyl sulfone
morphology of senescent melanoma cells (arborization) (melanoma cells; 2% methyl sulfone): took on the morphology of mature melanocytes | survival of arborized cells in culture (melanoma cells; 2% methyl sulfone): at least two months | melanoma cells senescent (β-galactosidase activity) (melanoma cells; 2% methyl sulfone for more than three weeks): greater than 95% | senescence after replacing drug medium with control medium (melanoma cells; senescent cells, 2% methyl sulfone removed): remained senescent | DNA synthesis ([1]; 2% methyl sulfone): markedly reduced | cell growth anchorage dependence ([1]; 2% methyl sulfone): anchorage-dependent | contact inhibition ([1]; 2% methyl sulfone): contact inhibited | migration of cells through an extracellular matrix ([1]; 2% methyl sulfone): inhibited | mitochondrial activity ([1]; 2% methyl sulfone): decreased | senescence ([1]; 2% methyl sulfone): became senescent | wound healing ([1]; 2% methyl sulfone): proceeded normally | methyl sulfone concentration inducing apoptosis in breast cancer cells ([1]; breast cancer cells): above 2%
